Assay results from patent publication US20240350650A1, “LINKER AND CONJUGATE THEREFOR” (BEIJING HOPE PHARMACEUTICAL CO.LTD., priority 2021, published 2024).

Key:
Experiment in all cases: Inhibition of tumor cell proliferation (CTG, 6 days)
Type in all cases: cell-based, human
[1] = system: NCI-H1650 cells; conditions: FIG. 7
Description: (§1) All the cells were those with high expression of Trop2 antigens. Trodelvy was the tradename of sacituzumab govitecan injector. Sacituzumab was an outsourced anti-Trop2 antibody. All cell lines were cultured in the complete medium at 37° C. with 5% CO2. Cells in the logarithmic growth phase were harvested and then counted using a […], and the cell viability was tested by the trypan blue rejection method to ensure that the cell viability was above 90%. […] The cells in the 96-well plate were cultured at 37° C. with 5% CO2. […] The cells from the dosed 96-well plate were cultured at 37° C. with 5% CO2 for another 6 days, followed by CTG analysis (CTG, a CellTiter-Glo kit, was a homogeneous cell viability assay for quantifying ATP to determine the viability of cultured cells). The CTG reagent was thawed, and the cell plate was equilibrated to room temperature for 30 min. 100 μL of CTG solution was added per well. The cells were shaken on an orbital shaker for 5 min for lysis. The cell plate was treated at room temperature for 20 min to stabilize the cold light signal. The cold light values were read to collect data. […] [formula]

[2] = system: SNU216 cells; conditions: FIG. 6
Description: as §1

[3] = system: NCI-H596 cells; conditions: FIG. 8
Description: as §1

[4] = system: MDA-MB-468 cells; conditions: FIG. 5
Description: as §1

Trodelvy
efficacy (in words) [1]: superior to Sacituzumab | efficacy (in words) [2]: superior to Sacituzumab | efficacy (in words) [3]: certain efficacy | efficacy (in words) [4]: superior to Sacituzumab
